ChEMBL document CHEMBL3621191, “Pyrimidine sulfonylacetanilides with improved potency against key mutant viruses of HIV-1 by specific targeting of a highly conserved residue” (Eur J Med Chem, 2015)

Tests used:
[1] = tested on: Human immunodeficiency virus 2; assay: Antiviral activity against HIV2 ROD infected in human MT4 cells assessed as reduction in virus-induced cytopathogenicity incubated for 4 days by MTT method; type: functional, organism-based; conditions: Human immunodeficiency virus 2, ROD, MT4, 96 h
[2] = Cytotoxicity against human MT4 cells assessed as reduction in cell viability incubated for 4 days by MTT assay; type: cell-based
[3] = Selectivity index, ratio of CC50 for human MT4 cells to EC50 for HIV1 3B infected in human MT4 cells; type: toxicity, cell-based; conditions: read-out: Ratio CC50/EC50
[4] = tested on: Human immunodeficiency virus 1; assay: Antiviral activity against HIV1 3B expressing reverse transcriptase K103N + Y181C mutant infected in human MT4 cells assessed as reduction in virus-induced cytopathogenicity incubated for 4 days by MTT method; type: functional, organism-based; conditions: Human immunodeficiency virus 1, 3B, MT4, 96 h
[5] = target: Human immunodeficiency virus type 1 reverse transcriptase (Human immunodeficiency virus 1, UniProt Q72547); assay: Inhibition of HIV1 reverse transcriptase p66/p51 assessed as inhibition of biotin-dUTP incorporation using poly (rA)/oligo(dT)16 as template/primer incubated for 40 mins
[6] = tested on: Human immunodeficiency virus 1; assay: Antiviral activity against HIV1 expressing reverse transcriptase F227L + V106A mutant; type: functional, organism-based
[7] = tested on: Human immunodeficiency virus 1; assay: Antiviral activity against HIV1 expressing reverse transcriptase Y188L mutant; type: functional, organism-based
[8] = tested on: Human immunodeficiency virus 1; assay: Antiviral activity against HIV1 expressing reverse transcriptase E138K mutant; type: functional, organism-based
[9] = tested on: Human immunodeficiency virus 1; assay: Antiviral activity against HIV1 3B infected in human MT4 cells assessed as reduction in virus-induced cytopathogenicity incubated for 4 days by MTT method; type: functional, organism-based; conditions: Human immunodeficiency virus 1, 3B, MT4, 96 h
[10] = tested on: Human immunodeficiency virus 1; assay: Antiviral activity against HIV1 expressing reverse transcriptase Y181C mutant; type: functional, organism-based
[11] = tested on: Human immunodeficiency virus 1; assay: Antiviral activity against HIV1 expressing reverse transcriptase L100I mutant; type: functional, organism-based
[12] = tested on: Human immunodeficiency virus 1; assay: Antiviral activity against HIV1 expressing reverse transcriptase K103N mutant; type: functional, organism-based

| Structure (SMILES) | EC50 [1] [µM] | CC50 at 96 h [2] [µM] | selectivity ratio [3] | EC50 [4] [µM] | IC50 [5] [µM] | EC50 [6] [µM] | EC50 [7] [µM] | EC50 [8] [µM] | EC50 [9] [µM] | EC50 [10] [µM] | EC50 [11] [µM] | EC50 [12] [µM] |
| --- | --- | --- | --- | --- | --- | --- | --- | --- | --- | --- | --- | --- |
| Cc1cc(C#N)cc(C)c1Oc1ccnc(SCC(=O)Nc2ccc(C#N)cc2)n1 | > 301 | > 301 | > 71 | > 301 | – | – | – | – | – | – | – | – |
| Cc1cc(C#N)cc(C)c1Oc1ccnc(S(=O)(=O)CC(=O)Nc2ccc(F)cc2)n1 | > 26.1 | 26.1 | 2930 | 4.36 | 1.84 | 1.48 | 3.97 | 0.227 | 0.0089 | 0.681 | 0.749 | 0.0409 |
| Cc1cc(C#N)cc(C)c1Oc1ccnc(S(=O)(=O)CC(=O)Nc2ccccc2Cl)n1 | > 12.5 | 12.5 | 8.7 | > 12.5 | 143 | – | – | – | 1.45 | – | – | – |
| Cc1cc(C#N)cc(C)c1Oc1ccnc(S(=O)(=O)CC(=O)Nc2cccc(Cl)c2)n1 | > 25.4 | 25.4 | 831 | 7.22 | 0.978 | – | – | – | 0.0306 | – | – | – |
| Cc1cc(C#N)cc(C)c1Oc1ccnc(S(=O)(=O)CC(=O)Nc2ccc(Cl)cc2)n1 | > 16.6 | 16.6 | 4740 | 1.05 | 0.72 | 0.678 | 1.42 | 0.0416 | 0.0035 | 0.129 | 0.19 | 0.0101 |
| Cc1cc(C#N)cc(C)c1Oc1ccnc(S(=O)(=O)CC(=O)Nc2ccc(Cl)cc2Cl)n1 | > 10.4 | 10.4 | 36.5 | > 10.4 | 15.3 | – | – | – | 0.285 | – | – | – |
| Cc1cc(C#N)cc(C)c1Oc1ccnc(S(=O)(=O)CC(=O)Nc2ccc(Cl)c(Cl)c2)n1 | > 11.7 | 11.7 | 666 | 1.18 | 0.177 | 3.2 | 1.47 | 0.244 | 0.0175 | 0.326 | 0.468 | 0.0448 |
| Cc1cc(C#N)cc(C)c1Oc1ccnc(S(=O)(=O)CC(=O)Nc2cc(Cl)cc(Cl)c2)n1 | > 24 | 24 | 58.9 | > 24 | 0.918 | – | – | – | 0.407 | – | – | – |
| Cc1cc(C#N)cc(C)c1Oc1ccnc(S(=O)(=O)CC(=O)Nc2ccc(Br)cc2)n1 | > 15.6 | 15.6 | 5980 | 0.957 | 0.728 | 0.479 | 0.957 | 0.0399 | 0.0026 | 0.116 | 0.184 | 0.01 |
| Cc1cc(C#N)cc(C)c1Oc1ccnc(S(=O)(=O)CC(=O)Nc2ccc(C#N)cc2)n1 | ≥ 32.2 | ≥ 6.01 | ≥ 3540 | 0.425 | 0.065 | 0.127 | 0.313 | 0.0165 | 0.0017 | 0.0313 | 0.067 | 0.0034 |
| Cc1cc(C#N)cc(C)c1Oc1ccnc(S(=O)(=O)CC(=O)Nc2ccc(C#N)cc2F)n1 | > 269 | > 269 | > 7810 | > 269 | 0.296 | – | – | – | 0.0344 | – | – | – |
| Cc1cc(C#N)cc(C)c1Oc1ccnc(S(=O)(=O)CC(=O)Nc2cccc([N+](=O)[O-])c2)n1 | > 23.6 | 23.6 | 501 | ≥ 7.49 | 1.41 | – | – | – | 0.0471 | – | – | – |
| Cc1cc(C#N)cc(C)c1Oc1ccnc(S(=O)(=O)CC(=O)Nc2ccc([N+](=O)[O-])cc2)n1 | > 59.6 | 59.6 | 45800 | 0.385 | 0.053 | 0.141 | 0.278 | 0.0257 | 0.0013 | 0.0406 | 0.111 | 0.0073 |
| Cc1cc(C#N)cc(C)c1Oc1ccnc(S(=O)(=O)CC(=O)Nc2ccccc2)n1 | > 29.3 | 29.3 | 1120 | > 29.3 | 15.7 | – | – | – | 0.026 | – | – | – |
| Cc1cccc(NC(=O)CS(=O)(=O)c2nccc(Oc3c(C)cc(C#N)cc3C)n2)c1 | > 25.7 | 25.7 | 75 | > 25.7 | 133 | – | – | – | 0.344 | – | – | – |
| Cc1ccc(NC(=O)CS(=O)(=O)c2nccc(Oc3c(C)cc(C#N)cc3C)n2)cc1 | > 7.49 | 7.49 | 1060 | ≥ 9.62 | 0.766 | – | – | – | 0.0071 | – | – | – |
| Cc1ccc(NC(=O)CS(=O)(=O)c2nccc(Oc3c(C)cc(C#N)cc3C)n2)cc1C | > 13.9 | 13.9 | 179 | > 13.9 | 27.3 | – | – | – | 0.0777 | – | – | – |
| COc1ccc(NC(=O)CS(=O)(=O)c2nccc(Oc3c(C)cc(C#N)cc3C)n2)cc1 | > 5.11 | 5.11 | 136 | > 5.11 | 4.66 | – | – | – | 0.0376 | – | – | – |
| Cc1cc(C#N)cc(C)c1Oc1ccnc(S(=O)(=O)CC(=O)Nc2ccccc2F)n1 | > 28.4 | 28.4 | 176 | > 28.4 | 24.3 | – | – | – | 0.161 | – | – | – |
| Cc1cc(C#N)cc(C)c1Oc1ccnc(S(=O)(=O)CC(=O)Nc2cccc(F)c2)n1 | > 25.9 | 25.9 | 1680 | 7.15 | 0.22 | – | – | – | 0.0154 | – | – | – |
| O=C1Nc2ccc(Cl)cc2[C@@](C#CC2CC2)(C(F)(F)F)O1 [EFAVIRENZ] | – | > 6.34 | – | – | – | 0.228 | 0.348 | 0.0054 | 0.0063 | 0.0082 | 0.095 | – |
| Cc1cc(C#N)cc(C)c1Oc1nc(Nc2ccc(C#N)cc2)nc(N)c1Br [ETRAVIRINE] | – | > 4.59 | > 1120 | – | – | 0.0149 | 0.0159 | 0.0168 | – | 0.0115 | 0.0177 | 0.0032 |
| Cc1ccnc2c1NC(=O)c1cccnc1N2C1CC1 [NEVIRAPINE] | – | > 15 | – | ≥ 7.58 | – | > 15 | > 15 | 0.289 | – | ≥ 12.4 | 3.46 | 9.35 |
